Earlier results as cited in US5730986A (priority 1995, dated 1998).

Legend:
[1] = in vivo
pepsinogen = details: rat stomach

SMILES: [Mg+2].[OH-].[OH-] [Mg(OH)2]
- adverse reactions [1]: loose stools or diarrhea

SMILES: C/C=C(\C)C(=O)O[C@H]1C[C@@H](OC(C)=O)[C@@]2(C(=O)OC)CO[C@H]3[C@@H](O)[C@@](C)([C@]45O[C@@]4(C)[C@H]4C[C@@H]5O[C@@H]5OC=C[C@@]54O)[C@H]4[C@]1(CO[C@]4(O)C(=O)OC)[C@@H]32 [Azadirachtin]
- activity against larva (larva of P. xylostella L): active against larva of P. xylostella L
- inhibition of the development of malarial parasites (malarial parasites): inhibitory to the development of malarial parasites
- pesticide properties (insects): phagorepellent, antifeadent and systemic growth disruptor properties in insects

SMILES: COc1ccc2[nH]c([S+]([O-])Cc3ncc(C)c(OC)c3C)nc2c1 (stereo not drawn) [omeprazole]
- secretion, synthesis and gene expression of pepsinogen (pepsinogen): reduces the secretion, synthesis and gene expression of pepsinogen

SMILES: CN/C(=N/CCSCc1nc[nH]c1C)NC#N [cimetidine]
- inhibition of cytochrome P450-catalyzed drug oxidation and hydroxylation of estradiol (cytochrome P450): inhibits cytochrome P450 -catalyzed drug oxidation and hydroxylation of estradiol
